# Patent US20210032253A1, “PYRAZOLO[1,5-A][1,3,5]TRIAZINE-2-AMINE DERIVATIVE, PREPARATION METHOD THEREFOR AND MEDICAL USE THEREOF” (JIANGSU HENGRUI MEDICINE CO., LTD., priority 2018, published 2021)
# Experiments:
# Type in all cases: cell-based
# [1] = target: T1, adenosine A3 receptor (A3R) (Homo sapiens, UniProt P0DMS8); test: Inhibition of adenosine A3 receptor cAMP signaling pathway in CHO-K1/A3R cells (HTRF cAMP dynamic 2 kit); conditions: Table 3; for IC50: CHO-K1/A3R cells, cAMP, 10 μM forskolin, 5 nM 2Cl-IB-MECA; for IC50 ratio (A3R/A2aR): selectivity A3R over A2aR
# T1 construct: expressed in transfected cells; host or cells: CHO-K1
# T1 sequence (P0DMS8 1-318): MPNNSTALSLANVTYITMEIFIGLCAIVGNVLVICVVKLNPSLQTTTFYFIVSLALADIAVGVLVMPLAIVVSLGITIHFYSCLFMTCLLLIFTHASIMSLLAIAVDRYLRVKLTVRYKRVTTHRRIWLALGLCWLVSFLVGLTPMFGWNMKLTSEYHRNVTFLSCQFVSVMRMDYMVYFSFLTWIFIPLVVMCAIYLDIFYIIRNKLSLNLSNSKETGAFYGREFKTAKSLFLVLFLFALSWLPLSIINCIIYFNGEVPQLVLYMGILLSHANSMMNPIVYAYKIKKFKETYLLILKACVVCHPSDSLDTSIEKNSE
# Excerpt: (§1) Test Example 1. Determination of the inhibitory activities of the compounds of the present disclosure on the adenosine A2a receptor (A2aR) cAMP signaling pathway, the adenosine A1 receptor (A1R) cAMP signaling pathway and the adenosine A3 receptor (A3R) cAMP signaling pathway.
# (§2) The inhibitory activities of the compounds of the present disclosure on the adenosine A2a receptor (A2aR) cAMP signaling pathway, the adenosine A1 receptor cAMP signaling pathway and the adenosine A3 receptor cAMP signaling pathway were determined by the following methods. The experimental method is briefly described as follows:
# CHO-K1/A3R cells were cultured in DMEMIF12 medium containing 10% fetal bovine serum and 10 μg/mL puromycin. The cells were digested with the cell dissociation buffer during the experiment. The cells were resuspended in the HBSS buffer containing 20 mM HEPES and 0.1% bovine serum albumin and counted, and the cell density was adjusted to 5×10^5 cells/mL. In 384-well plates, each well was added with 12.5 μL of the cell suspension, and 6.25 μL of the test compounds (4× concentration) formulated with the HBSS buffer containing 20 mM HEPES, 0.1% bovine serum albumin, 54 μM rolipram and 2.7 U/mL adenosine deaminase, and the plates were incubated at room temperature for 30 minutes. Each well was then added with 6.25 μL of forskolin and 2Cl-IB-MECA (4× concentration) formulated with the HBSS buffer containing 20 mM HEPES, 0.1% bovine serum albumin, […] rolipram and 2.7 U/mL adenosine deaminase, and the plates were incubated at room temperature for 30 minutes. The final concentrations of the compounds were: 100000, 10000, 1000, 100, 10, 1, 0.1 and 0 nM. The final concentration of forskolin was 10 μM. The final concentration of 2Cl-IB-MECA was 5 nM. Intracellular cAMP concentration was determined with cAMP dynamic 2 kits. cAMP-d2 and Anti-cAMP—Eu-Cryptate were diluted respectively with the cAMP lysis buffer at a ratio of 1:4. Each well was added with 12.5 μL of the diluted cAMP-d2, followed by addition of 12.5 μL of the diluted Anti-cAMP—Eu-Cryptate, and the plates were incubated at room temperature in the dark for 1 hour. The HTRF signal values were read by the PHERAstar multi-function microplate reader. IC50 values for the inhibitory activities of the compounds were calculated by Graphpad Prism software, and are shown in Table 3.
# [2] = target: T2, adenosine A1 receptor (A1R) (Homo sapiens, UniProt P30542); test: Inhibition of adenosine A1 receptor cAMP signaling pathway in CHO-K1/A1R cells (HTRF cAMP dynamic 2 kit); conditions: Table 2; for IC50: CHO-K1/A1R cells, cAMP, 10 μM forskolin, 10 nM CPA; for IC50 ratio (A1R/A2aR): selectivity A1R over A2aR
# T2 construct: expressed in transfected cells; host or cells: CHO-K1
# T2 sequence (P30542 1-326): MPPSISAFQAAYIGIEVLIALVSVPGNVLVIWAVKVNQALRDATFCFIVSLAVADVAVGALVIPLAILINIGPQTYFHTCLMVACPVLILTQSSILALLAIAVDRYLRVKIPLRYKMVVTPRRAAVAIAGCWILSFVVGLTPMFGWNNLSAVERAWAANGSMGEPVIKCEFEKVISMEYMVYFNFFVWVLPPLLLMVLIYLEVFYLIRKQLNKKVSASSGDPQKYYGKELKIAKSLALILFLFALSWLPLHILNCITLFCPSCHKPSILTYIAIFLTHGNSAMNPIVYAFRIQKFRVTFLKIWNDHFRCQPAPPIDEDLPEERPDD
# Excerpt: as §1, §2
# CHO-K1/A1R cells were cultured in DMEMIF12 medium containing 10% fetal bovine serum and 1 mg/mL G418. The cells were digested with the cell dissociation buffer during the experiment. The cells were then resuspended in the HBSS buffer containing 20 mM HEPES and 0.1% bovine serum albumin and counted, and the cell density was adjusted to 5×10^5 cells/mL. In 384-well plates, each well was added with 12.5 μL of the cell suspension, and 6.25 μL of the test compounds (4× concentration) formulated with the HBSS buffer containing 20 mM HEPES, 0.1% bovine serum albumin, 54 μM rolipram and 2.7 U/mL adenosine deaminase, and the plates were incubated at room temperature for 30 minutes. Each well was then added with 6.25 μL of forskolin and N6-cyclopentyladenosine (4× concentration) formulated with the HBSS buffer containing 20 mM HEPES, 0.1% bovine serum albumin, 54 μM rolipram and 2.7 U/mL adenosine deaminase, and the plates were incubated at room temperature for 30 minutes. The final concentrations of the compounds were: 100000, 10000, 1000, 100, 10, 1, 0.1 and 0 nM. The final concentration of forskolin was 10 μM. The final concentration of CPA was 10 nM. Intracellular cAMP concentration was determined with cAMP dynamic 2 kits. cAMP-d2 and Anti-cAMP—Eu-Cryptate were diluted respectively with the cAMP lysis buffer at a ratio of 1:4. Each well was added with 12.5 μL of the diluted cAMP-d2, followed by addition of 12.5 μL of the diluted Anti-cAMP—Eu-Cryptate, and the plates were incubated at room temperature in the dark for 1 hour. The HTRF signal values were read by the PHERAstar multi-function microplate reader.
# [3] = target: T3, adenosine A2a receptor (A2aR) (Homo sapiens, UniProt P29274); test: Inhibition of adenosine A2a receptor cAMP signaling pathway in CHO-K1/A2aR cells (HTRF cAMP dynamic 2 kit); conditions: Table 1, 20 nM ethylcarbazole
# T3 construct: expressed in transfected cells; host or cells: CHO-K1
# Excerpt: as §1, §2
# CHO-K1/A2aR cells were cultured in DMEM/F12 medium containing 10% fetal bovine serum and 800 μg/mL Zeocin™. The cells were digested with the cell dissociation buffer during the experiment. The cells were resuspended in the HBSS buffer containing 20 mM HEPES and 0.1% bovine serum albumin and counted, and the cell density was adjusted to 10^6 cells/mL. In 384-well plates, each well was added with 5 μL of the cell suspension, and 2.5 µL of test compounds (4× concentration) formulated with the HBSS buffer containing 20 mM HEPES, 0.1% bovine serum albumin, 54 μM rolipram and 2.7 U/mL adenosine deaminase, and the plates were incubated at room temperature for 30 minutes. Each well was then added with 2.5 μL of ethylcarbazole (4× concentration) formulated with the balanced salt buffer containing 20 mM HEPES, 0.1% bovine serum albumin, 54 μM rolipram and 2.7 U/mL adenosine deaminase, and the plates were incubated at room temperature for 30 minutes. The final concentrations of the compounds were: 10000, 2000, 400, 80, 16, 3.2, 0.64, 0.128, 0.0256, 0.00512, and 0.001024 nM. The final concentration of ethylcarbazole was 20 nM. Intracellular cAMP concentration was determined with cAMP dynamic 2 kits. cAMP-d2 and Anti-cAMP—Eu-Cryptate were diluted respectively with the cAMP lysis buffer at a ratio of 1:4. Each well was added with 5 μL of the diluted cAMP-d2, followed by addition of 5 μL of the diluted Anti-cAMP—Eu-Cryptate, and the plates were incubated at room temperature in the dark for 1 hour. The HTRF signal values were read by the PHERAstar multi-function microplate reader.
# T3 sequence (P29274 whole entry): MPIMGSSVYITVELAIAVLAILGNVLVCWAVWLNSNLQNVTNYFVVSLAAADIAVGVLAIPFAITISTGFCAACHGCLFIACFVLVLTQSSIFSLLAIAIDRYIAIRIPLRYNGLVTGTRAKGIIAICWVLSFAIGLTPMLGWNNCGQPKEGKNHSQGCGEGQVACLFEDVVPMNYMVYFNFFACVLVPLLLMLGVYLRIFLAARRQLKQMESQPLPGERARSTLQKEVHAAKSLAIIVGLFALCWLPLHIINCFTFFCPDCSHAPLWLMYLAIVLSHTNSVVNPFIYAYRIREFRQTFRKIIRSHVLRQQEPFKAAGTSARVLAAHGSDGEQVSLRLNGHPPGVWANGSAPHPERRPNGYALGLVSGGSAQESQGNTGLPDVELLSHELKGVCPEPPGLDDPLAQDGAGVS
IC50 [1],IC50 ratio (A3R/A2aR) [1],IC50 [2],IC50 ratio (A1R/A2aR) [2],IC50 [3],Compound
3370 nM,>10^3,483 nM,294^,1.64 nM,"Cc1ccc(-c2nc(N)nc3c(Cc4cccc(CN5CC6COCC6C5)n4)cnn23)o1 (stereo not drawn) [Example 9, 4-(5-Methylfuran-2-yl)-8-((6-((tetrahydro-1H-furo[3,4-c]pyrrol-5(3H)-yl)methyl)pyridin-2-yl)methyl)pyrazolo[1,5-a][1,3,5]triazin-2-amine]"
358 nM,209^,147 nM,86^,1.71 nM,"Nc1nc(-c2ccco2)n2ncc(Cc3ccccc3F)c2n1 [Example 10, 8-(2-Fluorobenzyl)-4-(furan-2-yl)pyrazolo[1,5-a][1,3,5]triazin-2-amine]"
5500 nM,>10^3,1230 nM,725^,1.7 nM,"COCc1cccc(Cc2cnn3c(-c4ccc(C)o4)nc(N)nc23)n1 [Example 13, 8-((6-(Methoxymethyl)pyridin-2-yl)methyl)-4-(5-methylfuran-2-yl)pyrazolo[1,5-a][1,3,5]triazin-2-amine]"
1390 nM,>10^3,293 nM,431^,0.68 nM,"Cc1ccc(-c2nc(N)nc3c(Cc4cccc(COCCF)n4)cnn23)o1 [Example 14, 8-((6-((2-Fluoroethoxy)methyl)pyridin-2-yl)methyl)-4-(5-methylfuran-2-yl)pyrazolo[1,5-a][1,3,5]triazin-2-amine]"
8970 nM,>10^3,165 nM,90^,1.83 nM,"Cc1ccc(-c2nc(N)nc3c(Cc4cccc(CO[C@H]5CCN(C)C5)n4)cnn23)o1 [Example 15, (S)-4-(5-Methylfuran-2-yl)-8-((6-(((1-methylpyrrolidin-3-yl)oxy)methyl)pyridin-2-yl)methyl) pyrazolo[1,5-a][1,3,5]triazin-2-amine]"
1700 nM,>10^3,609 nM,>10^3,0.4 nM,"Cc1ccc(-c2nc(N)nc3c(Nc4cccc(CO[C@@H]5CCOC5)n4)cnn23)o1 [Example 21, (R)-4-(5-Methylfuran-2-yl)-N^8-(6-(((tetrahydrofuran-3-yl)oxy)methyl)pyridin-2-yl)pyrazolo[1,5-a][1,3,5]triazine-2,8-diamine]"
1050 nM,>10^3,303 nM,532^,0.57 nM,"Cc1ccc(-c2nc(N)nc3c(Cc4cccc(COC5CCCC5)n4)cnn23)o1 [Example 22, 8-((6-((Cyclopentyloxy)methyl)pyridin-2-yl)methyl)-4-(5-methylfuran-2-yl)pyrazolo[1,5-a][1,3,5]triazin-2-amine]"
2040 nM,>10^3,2020 nM,>10^3,1.2 nM,"Cc1ccc(-c2nc(N)nc3c(Cc4cccc(CO[C@H]5CCOC5)c4)cnn23)o1 [Example 24, (S)-4-(5-Methylfuran-2-yl)-8-(3-(((tetrahydrofuran-3-yl)oxy)methyl)benzyl)pyrazolo[1,5-a][1,3,5]triazin-2-amine]"
8150 nM,>10^3,2040 nM,>10^3,1.64 nM,"Cc1ccc(-c2nc(N)nc3c(Nc4cccc(CO[C@H]5CCOC5)c4)cnn23)o1 [Example 25, (S)-4-(5-Methylfuran-2-yl)-N^8-(3-(((tetrahydrofuran-3-yl)oxy)methyl)phenyl)pyrazolo[1,5-a][1,3,5]triazine-2,8-diamine]"
5300 nM,>10^3,1210 nM,731^,1.66 nM,"Cc1ccc(-c2nc(N)nc3c(Nc4cccc(CO[C@H]5CCOC5)c4F)cnn23)o1 [Example 26, (S)—N^8-(2-fluoro-3-(((tetrahydrofuran-3-yl)oxy)methyl)phenyl)-4-(5-methylfuran-2-yl)pyrazolo[1,5-a][1,3,5]triazine-2,8-diamine]"
977 nM,514^,286 nM,150^,1.9 nM,"Cc1ccc(-c2nc(N)nc3c(Nc4cccc(CN5CCOCC5)n4)cnn23)o1 [Example 27, 4-(5-Methylfuran-2-yl)-N^8-(6-(morpholinomethyl)pyridin-2-yl)pyrazolo[1,5-a][1,3,5]triazine-2,8-diamine]"
1150 nM,540^,595 nM,279^,2.13 nM,"Cc1ccc(-c2nc(N)nc3c(Sc4cccc(CO[C@H]5CCOC5)n4)cnn23)o1 [Example 28, (S)-4-(5-Methylfuran-2-yl)-8-((6-(((tetrahydrofuran-3-yl)oxy)methyl)pyridin-2-yl)thio)pyrazolo[1,5-a][1,3,5]triazin-2-amine]"
